Test results taken from patent publication US20230364204A1, “Bioactive Peptides, Compositions, Production Process, and Use of Bioactive Peptides as Anti-Tumoral Agents” (priority 2022, published 2023).

Assays:
[1] = test system: MDA-MB-231 cells implanted in zebrafish larvae; experiment: Zebrafish xenograft model of MDAMB231 (primary tumor and metastasis); assay type: in vivo; details: 72 h, 3-NantC co-implanted at 75, 100 or 125 mg/mL, Doxorubicin 2.5 µg/mL in embryo water
Protocol: Transgenic Tg(fli1:EGFP)y1 zebrafish embryos were raised at 28° C. for 48 hours in E3 embryo medium 0.2 mM 1-Phenyl-2-Thiourea aka PTU. […] MDA-MB-231 cells were labeled with Dil red fluorescent dye. Approximately 700 Dil Labeled cancer cells were subcutaneously co-implanted into the perivitelline space of 2 days old larvae ± 3-NantC peptide at […]. Larvae in which tumor cells had been inadvertently injected into circulation or larvae with erroneous implantation of the tumor in the yolk rather than the perivitelline space were excluded from the study. Selected tumor bearing embryos were sorted into experimental groups (20 embryos/group), and pictures of primary tumors were taken right after injection. Doxorubicin treatment was added to embryo water at 2.5 µg/mL according to the study plan. Tumor-bearing embryos were incubated in E3/PTU medium for 72 h at 36° C. After incubation, pictures of the primary tumors and the CVP were taken using a red fluorescent filter. Larvae that died or were lost by other means during the study were excluded from the final analysis.
Images obtained right after implantation (day 0) and after 72 h incubation (day 3) were analyzed by using in-house developed software. Tumor growth regression was calculated and normalized to the negative control group. The number of metastasized cells was counted manually. One-way ANOVA was performed followed by two-tailed Student’s t-test. Definitive outliers were detected using the ROUT method with a Q=1%. Graphs and example images, and experimental data were obtained/analyzed by using GraphPad Prism v9.0.2.

[2] = MTT cell viability, mammary benign cells; assay type: cell-based; details: human, MCF10A cells (mammary benign cells), read-out: viable cells (MTT)
Protocol: (§1) For the method of MTT, the cells were plated in 96-well sterile plates for cell culture with a cap at the density of 2 × 10^4 cells/well for treatments lasting 24 h and 1 × 10^4 cells/well for treatments lasting 48 h or more, completing the volume to 100 µL with culture medium. The plates were incubated for 8-16 h in an incubator at 37° C. and 5% CO2. The next day, the treatments were prepared in culture medium, applying 200 µL/well at the desired concentration, and the plates were placed in an incubator at 37° C. and 5% CO2for the duration of treatment. After the treatment period, 20 µL/well of a MTT solution was added in PBS (1×) at a concentration of 5 mg/mL, and the dye was incubated at 37° C. and 5% CO2 for 2.5 h. After incubation with MTT, Formazan salts were solubilized with the addition of 200 µL of dimethylsulfoxide solution (DMSO): isopropanol (3:1) and agitated for at least 15 minutes at room temperature. After complete dissolution of the salts, the absorbance was read in a spectrophotometer at 570 nm with endpoint protocol.
(§2) The calculation of cell viability was performed using the formula: […]
(§3) O.D.: optical density captured by spectrophotometer
(§4) NOTE: The Basal O.D. is the one found in the blank wells.

[3] = test system: MDAMB231 cells (triple negative); experiment: MTT cell viability, tumor cells; assay type: cell-based
Protocol: as §1, §2, §3, §4
In order to determine the efficacy (comparison of doses and times for the MDAMB231 cell line) and safety (comparison between the effects on MDAMB231 and HDFa cells) of the peptide SEQ ID 1 - MFYPDSRCRGPSET (C-terminal region of Crotoxin B), named 3-NAntC, the Analysis of Variance (ANOVA) with Bonferroni post-hoc test was applied to the significance of 5% in GraphPad Prism software version 6.0.

With `COc1cccc2c1C(=O)c1c(O)c3c(c(O)c1C2=O)C[C@@](O)(C(=O)CO)C[C@@H]3O[C@H]1C[C@H](N)[C@H](O)[C@H](C)O1` [Doxorubicin, reference compound] the “decrease of tumor cells (primary tumor)” value [1] was “about 35%”.
In the case of “H-AIPFYAFY-OH [Peptide B, [H)-AIPFYAFY-(OH]]”, the viability at 48 h [2] is reported as about 85%.
For “MFYPDSRSRGPSET [SEQ ID 10, 3-NAntC monomer]”, the “compared efficacy in decreasing MDAMB231 cells' viability (MTT, FIG. 13/14)” value ([3]; MDAMB231, SEQ IDs 2-10 compared to SEQ ID 1) was “interesting antitumor effect”.
In the case of “[H]-HLLQ FNKMIKFETRKNAIPF-[OH] (N-terminal HLLQ) [Peptide A, peptide derived from the N-terminal region of Crotoxin B, reference compound]”, the “effect on viability of the tumor cells (MTT), in words” value ([3]; MDAMB231) is reported as “did not decrease the viability”.
